Test results published in patent US20050244414A1, “Method to ameliorate osteolysis and metastasis” (XENOTECH INCORPORATED, priority 1995, published 2005).

B1: PTH: parathyroid hormone, bone resorption stimulating factor added to culture medium (protein, UniProt P01270 32-115, looked up)
Parathyroid hormone: SVSEIQLMHNLGKHLNSMERVEWLRKKLQDVHNFVALGAPLAPRDAGSQRPRKKEDNVLVESHEKSLGEADKADVNVLTKAKSQ
modifications: Parathyroid hormone
notes: parathyroid hormone, bone resorption stimulating factor added to culture medium

What was measured:
bone resorption = conditions: cited from earlier work
fetal rat long bone = assay: Bone resorption measured as 45Ca release in organ culture; type: cell-based; conditions: stimulating factor alone at 10 ng/ml, 120 hours; untreated bones roughly 20%
Description: In this example, the percentage of labeled calcium (^45Ca) from fetal rat long bone was used as a measure of bone resorption. To label the bones, pregnant female rats at the 18th day of gestation were injected subcutaneously with 50 μCi of labeled calcium salt. The embryos were harvested the next day, at 19 days gestation, and long bones were obtained from the fetuses. The bones were cultured in standard media for 120 hours in the presence or absence of various putative bone resorption stimulation factors and in the presence and absence of the anti-PTH-rp (1-34) antibody used in Preparation A. The results are shown in FIG. 2.

Row | Molecule | potency relative to etidronate, ability to inhibit bone resorption (bone resorption) | release of labeled calcium (45Ca) into the medium (fetal rat long bone)
1 | NCCC(O)(P(=O)(O)O)P(=O)(O)O [pamidronate] | approximately 100 times | –
2 | parathyroid hormone-related protein [PTH-rp] | – | ~90%
3 | B1 | – | ~90%
